The values below come from US10077261B2, “Imidazolin-5-one derivative useful as FASN inhibitors for the treatment of cancer” (Janssen Pharmaceutica NV, priority 2012, dated 2018).

The target in experiment [1] is T1, hFASN enzyme (full length) (Homo sapiens, UniProt P49327).
T1 construct: 10 μL hFASN enzyme (full length, 300 ng, purified in house); made in house
Put plainly: Fatty Acid Synthase (FASN) inhibition scintillation proximity assay. It is filed as biochemical. The note with it: for inhibition at 10 µM: read-out: Human FASN % inhibition @ 10 μM, 10 μM test compound; for IC50: read-out: Human FASN pIC50 (converted). The method in brief:
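Read-out relies on hydrophobic ³H-palmitate product, formed from ³H-acetyl-CoA and malonyl-CoA, binding streptavidin imaging beads, measured at 610±20 nm after at least 24 h. Full-length enzyme (300 ng) in phosphate buffer pH 7.5 with DTT; eight compound concentrations, 0.01–30 μM.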
In general terms: In a scintillation proximity assay essentially only radioactivity close to the scintillant gives light.

In experiment [2] the test system is A2780 ovarian cells. Nature of the experiment: A2780 ovarian cell proliferation assay in lipid reduced medium, without palmitate (MTT). It is filed as cell-based. Conditions: Homo sapiens, A2780, 96 h; read-out: pIC50 A2780 Ovarian Cell, Without Palmitate (converted).
In experiment [3] the test system is PC-3M-Luc-C6 prostate cells. Put plainly: In vitro PC-3M-Luc-C6 prostate cell proliferation assay in lipid reduced medium. The note with it: 96 h, read-out: pIC50 PC-3M-Luc-C6 prostate cell (converted). It counts as cell-based.
For experiment [4], the system named is LNCaP-Vancouver prostate cells. Put plainly: In vitro LNCaP Vancouver prostate cell proliferation assay in lipid reduced medium. It counts as cell-based. Conditions: read-out: pIC50 LNCaP_Vancouver prostate cell (converted).
Experiment [5] addresses Fatty Acid Synthase Keto-reductase Domain (FASN KR) (Homo sapiens, UniProt P49327). Put plainly: Fatty Acid Synthase keto-reductase domain (FASN KR) inhibition, NADPH oxidation at 340 nm.
Method: After 20 minutes incubation at room temperature the plate was measured again (T2).
The decrease in absorbance was calculated as (Absorbance before incubation T1)−(Absorbance following incubation T2).
A plot of Controlmin versus test compound concentration was fitted to a 4-parameter logistic curve using a non-linear least squares regression method.
Experiment [6] deals with A2780 ovarian cells. Put plainly: A2780 ovarian cell proliferation assay in lipid reduced medium, with palmitate (MTT). It is filed as cell-based. Conditions: Homo sapiens, A2780, 96 h; read-out: pIC50 A2780 Ovarian Cell, With Palmitate (converted). A digest of the protocol:
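In this palmitate-supplemented format, compound dilutions (30 μM down to 0.01 μM) are added to cells in lipid-reduced serum with 25 μM palmitate, 0.2% fatty-acid-free BSA and 0.25% ethanol. After four days (96 h) MTT absorbance at 544 nm is recorded and fitted by minimum sum of squares.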

Sequence of Fatty Acid Synthase Keto-reductase Domain (FASN KR) (P49327 whole entry, the tested form may be a part): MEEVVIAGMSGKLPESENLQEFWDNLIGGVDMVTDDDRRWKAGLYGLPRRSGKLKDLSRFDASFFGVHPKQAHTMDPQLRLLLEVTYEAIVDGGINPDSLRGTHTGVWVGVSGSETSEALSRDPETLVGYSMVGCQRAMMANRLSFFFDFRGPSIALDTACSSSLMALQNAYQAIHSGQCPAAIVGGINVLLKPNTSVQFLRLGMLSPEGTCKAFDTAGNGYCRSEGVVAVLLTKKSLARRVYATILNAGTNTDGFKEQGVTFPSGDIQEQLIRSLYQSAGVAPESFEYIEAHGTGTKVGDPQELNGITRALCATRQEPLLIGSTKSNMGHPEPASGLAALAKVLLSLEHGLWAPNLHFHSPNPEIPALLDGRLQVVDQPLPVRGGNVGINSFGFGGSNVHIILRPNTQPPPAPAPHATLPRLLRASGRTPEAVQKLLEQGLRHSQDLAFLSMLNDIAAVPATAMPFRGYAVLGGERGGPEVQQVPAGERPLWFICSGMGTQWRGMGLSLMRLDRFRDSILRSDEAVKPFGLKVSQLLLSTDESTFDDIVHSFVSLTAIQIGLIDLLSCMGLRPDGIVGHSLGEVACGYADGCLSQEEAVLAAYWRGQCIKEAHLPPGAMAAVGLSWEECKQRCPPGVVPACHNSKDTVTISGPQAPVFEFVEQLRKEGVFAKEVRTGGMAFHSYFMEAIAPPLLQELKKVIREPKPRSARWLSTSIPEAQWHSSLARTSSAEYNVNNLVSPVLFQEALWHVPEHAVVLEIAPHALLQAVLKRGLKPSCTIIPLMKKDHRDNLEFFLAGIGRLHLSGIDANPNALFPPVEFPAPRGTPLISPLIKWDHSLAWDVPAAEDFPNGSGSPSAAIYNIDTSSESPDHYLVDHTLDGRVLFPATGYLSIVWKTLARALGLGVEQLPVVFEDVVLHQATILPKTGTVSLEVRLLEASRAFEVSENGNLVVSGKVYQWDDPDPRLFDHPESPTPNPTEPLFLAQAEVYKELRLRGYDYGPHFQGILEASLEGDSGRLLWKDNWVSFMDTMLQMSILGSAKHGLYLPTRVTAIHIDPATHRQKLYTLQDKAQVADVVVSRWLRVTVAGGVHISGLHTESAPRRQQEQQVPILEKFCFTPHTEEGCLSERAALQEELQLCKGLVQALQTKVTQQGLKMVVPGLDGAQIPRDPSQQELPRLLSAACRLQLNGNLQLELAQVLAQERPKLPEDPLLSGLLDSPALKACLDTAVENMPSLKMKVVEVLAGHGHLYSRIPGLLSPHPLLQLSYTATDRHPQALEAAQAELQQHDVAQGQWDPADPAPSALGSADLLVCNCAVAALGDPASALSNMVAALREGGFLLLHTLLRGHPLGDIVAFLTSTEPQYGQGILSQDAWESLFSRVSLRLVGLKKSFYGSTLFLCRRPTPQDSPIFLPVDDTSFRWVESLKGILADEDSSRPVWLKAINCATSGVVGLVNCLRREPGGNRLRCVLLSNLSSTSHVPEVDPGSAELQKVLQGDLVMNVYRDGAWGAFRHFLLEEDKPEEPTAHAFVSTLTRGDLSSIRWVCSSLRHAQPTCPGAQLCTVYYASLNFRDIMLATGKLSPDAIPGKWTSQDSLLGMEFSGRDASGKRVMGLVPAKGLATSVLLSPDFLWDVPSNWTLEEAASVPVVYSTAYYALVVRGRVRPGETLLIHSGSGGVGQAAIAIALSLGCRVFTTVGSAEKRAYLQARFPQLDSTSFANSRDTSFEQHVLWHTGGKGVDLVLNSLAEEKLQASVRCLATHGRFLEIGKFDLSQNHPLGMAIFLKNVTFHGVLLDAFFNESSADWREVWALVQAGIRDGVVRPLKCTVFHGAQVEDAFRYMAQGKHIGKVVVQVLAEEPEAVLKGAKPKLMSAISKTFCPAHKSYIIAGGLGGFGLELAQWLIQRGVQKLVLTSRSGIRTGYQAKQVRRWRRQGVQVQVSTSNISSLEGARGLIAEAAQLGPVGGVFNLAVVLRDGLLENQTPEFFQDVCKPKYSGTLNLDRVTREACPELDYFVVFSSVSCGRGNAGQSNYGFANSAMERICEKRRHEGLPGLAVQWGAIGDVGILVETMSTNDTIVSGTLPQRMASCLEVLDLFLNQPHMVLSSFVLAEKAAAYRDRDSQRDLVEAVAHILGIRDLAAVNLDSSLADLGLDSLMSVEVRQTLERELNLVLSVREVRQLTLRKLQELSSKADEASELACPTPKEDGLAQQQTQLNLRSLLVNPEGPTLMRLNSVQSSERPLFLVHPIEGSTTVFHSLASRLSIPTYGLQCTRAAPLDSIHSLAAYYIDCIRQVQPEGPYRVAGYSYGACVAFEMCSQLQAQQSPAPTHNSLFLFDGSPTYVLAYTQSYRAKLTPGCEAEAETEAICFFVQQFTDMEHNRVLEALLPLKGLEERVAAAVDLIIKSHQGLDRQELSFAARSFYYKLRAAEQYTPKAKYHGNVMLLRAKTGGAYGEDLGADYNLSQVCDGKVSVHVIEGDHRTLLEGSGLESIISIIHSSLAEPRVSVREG
T1 sequence (P49327 whole entry): as the sequence (P49327 whole entry, the tested form may be a part) above

As a reminder, the inhibition is the drop in the measured response relative to a control, in per cent. For the compound `Cc1cc(-c2ccc3c(cnn3C)c2)ccc1C1=NC2(CC2)C(=O)N1CC1CN(C(=O)C2CCCO2)C1` (stereo in doubt) [compound 206, (S)-5-(2-methyl-4-(1-methyl-1H-indazol-5-yl)phenyl)-6-((1-(tetrahydro-furan-2-carbonyl)azetidin-3-yl)methyl)-4,6-diazaspiro[2.4]hept-4-en-7-one], the inhibition at 10 µM in experiment [1] is 101%. In addition, the IC50 in experiment [1] was 37.2 nM; in the experiment with A2780 ovarian cells [2], roughly 10.5 nM; in experiment [3], 19.1 nM; in experiment [4], 100 nM; in experiment [5] it was 75.9 nM; in the experiment with A2780 ovarian cells [6], greater than 10000 nM.
Consider `O=C(C1CC1)N1CC(CN2C(=O)C3(CC3)N=C2c2ccc(-c3ccc4occc4c3)cc2)C1` [compound 49, 5-[4-(1-Benzofuran-5-yl)phenyl]-6-{[1-(cyclopropylcarbonyl)azetidin-3-yl]methyl}-4,6-diazaspiro[2.4]hept-4-en-7-one], for which the inhibition at 10 µM in experiment [1] came to 101%. Besides, the IC50 is 60.3 nM in experiment [1]; 331 nM in the experiment with A2780 ovarian cells [2]; 219 nM in experiment [3]; 912 nM in experiment [4]; 155 nM in experiment [5]; greater than 10000 nM with A2780 ovarian cells [6].
Turning to `Cn1cc(-c2ccc(-c3ccc(C4=NC5(CC5)C(=O)N4CC4CN(C(=O)C5CC5)C4)cc3)cc2)cn1` [compound 59, 6-{[1-(Cyclopropylcarbonyl)azetidin-3-yl]methyl}-5-[4′-(1-methyl-1H-pyrazol-4-yl)biphenyl-4-yl]-4,6-diazaspiro[2.4]hept-4-en-7-one], in experiment [1], the inhibition at 10 µM is 98.7%. For the same compound, the IC50 was 41.7 nM in experiment [1]; 95.5 nM in the experiment with A2780 ovarian cells [2]; 100 nM in experiment [3]; 263 nM in experiment [4]; 132 nM in experiment [5]; greater than 10000 nM in the experiment with A2780 ovarian cells [6].
Regarding `Cn1cc(-c2ccc(-c3ccc(C4=NC5(CC5)C(=O)N4C[C@@H]4CCN(C(=O)C5CC5)C4)cc3)cc2)cn1` [compound 65, (R)-6-((1-(Cyclopropanecarbonyl)pyrrolidin-3-yl)methyl)-5-(4′-(methyl-1H-pyrazol-4-yl)-[1,1′-biphenyl]-4-yl)-4,6-diazaspiro[2.4]hept-4-en-7-one], the “Human FASN pIC50” value in experiment [1] (hFASN enzyme full length, scintillation proximity assay, "~" = standard error of pIC50 larger than 0.5) was 7.55. Also, the inhibition at 10 µM in experiment [1] was 101%. For the same compound, the IC50 in the experiment with A2780 ovarian cells [2] is roughly 13.2 nM; in experiment [3], roughly 24.5 nM; in experiment [4], 66.1 nM; with A2780 ovarian cells [6], greater than 10000 nM. Moreover, the “FASN Keto-reductase Domain pIC50” value in experiment [5] (NADPH oxidation, absorbance at 340 nm, ethyl acetoacetate substrate) is 7.27.
Regarding `Cn1ncc2cc(-c3ccc(C4=NC5(CC5)C(=O)N4C[C@@H]4CCN(C(=O)C5(O)CC5)C4)cc3)ccc21` [compound 200], the inhibition at 10 µM in experiment [1] worked out at 102%. The IC50 in experiment [1] is 34.7 nM; in the experiment on A2780 ovarian cells [2], roughly 3.89 nM; in experiment [3], 6.46 nM; in experiment [4], roughly 33.9 nM; in experiment [5], 34.7 nM; in the experiment on A2780 ovarian cells [6], greater than 10000 nM.
For `Cn1ncc2cc(-c3ccc(C4=NC5(CC5)C(=O)N4C[C@@H]4CCN(C(=O)C5(C)CC5)C4)cc3)ccc21` [compound 201, (R)-5-(4-(1-methyl-1H-indazol-5-yl)phenyl)-6-((1-(1-methylcyclopropanecarbonyl)pyrrolidin-3-yl)methyl)-4,6-diazaspiro[2.4]hept-4-en-7-one], in experiment [1], the inhibition at 10 µM worked out at 100%. The IC50 in experiment [1] was 43.7 nM; with A2780 ovarian cells [2], roughly 4.37 nM; in experiment [3], roughly 6.61 nM; in experiment [4], 20.9 nM; in experiment [5] it was 33.9 nM; with A2780 ovarian cells [6], roughly 3470 nM.
`O=C(N1CC[C@@H](CN2C(=O)C3(CC3)N=C2c2ccc(-c3ccc(Cl)cc3F)cc2)C1)C1(O)CC1` [compound 202, (R)-5-(4′-chloro-2′-fluoro[1,1′-biphenyl]-4-yl)-6-((1-(1-hydroxycyclopropanecarbonyl)pyrrolidin-3-yl)methyl)-4,6-diazaspiro[2.4]hept-4-en-7-one]: in experiment [1], the inhibition at 10 µM was found to be 101%. The IC50 in experiment [1] is 83.2 nM; in the experiment with A2780 ovarian cells [2] it was 58.9 nM; in experiment [3] it was roughly 95.5 nM; in experiment [4] it was 550 nM; in experiment [5], 74.1 nM; in the experiment on A2780 ovarian cells [6], greater than 10000 nM.
As to `COc1ccc2cc(-c3ccc(C4=NC5(CC5)C(=O)N4C[C@@H]4CCN(C(=O)C5(O)CC5)C4)cc3)ccc2c1` [compound 203, (R)-6-((1-(1-hydroxycyclopropanecarbonyl)pyrrolidin-3-yl)methyl)-5-(4-(6-methoxynaphthalen-2-yl)phenyl)-4,6-diazaspiro[2.4]hept-4-en-7-one], in experiment [1], the inhibition at 10 µM came out at 99%. Also, the IC50 was 57.5 nM in experiment [1]; roughly 4.57 nM with A2780 ovarian cells [2]; 5.62 nM in experiment [3]; 21.4 nM in experiment [4]; 46.8 nM in experiment [5]; greater than 10000 nM with A2780 ovarian cells [6].
As for `Cc1cc(-c2ccc3c(cnn3C)c2)ccc1C1=NC2(CC2)C(=O)N1CC1CN(C(=O)C2CCCO2)C1` (stereo not shown) [compound 205, 5-(2-methyl-4-(1-methyl-1H-indazol-5-yl)phenyl)-6-((1-(tetrahytdro-furan-2-carbonyl)azetidin-3-yl)methyl)-4,6-diazaspiro[2.4]hept-4-en-7-one], the inhibition at 10 µM in experiment [1] is 94%. The IC50 in experiment [1] is 97.7 nM; in the experiment with A2780 ovarian cells [2], 36.3 nM; in experiment [3], 53.7 nM; in experiment [4], 102 nM; in experiment [5], 115 nM; with A2780 ovarian cells [6] it was greater than 10000 nM.
`Cc1cc(-c2ccc3c(cnn3C)c2)ccc1C1=NC2(CC2)C(=O)N1CC1CN(C(=O)C2(C)CCC2)C1` [compound 208, 5-(2-methyl-4-(1-methyl-1H-indazol-5-yl)phenyl)-6-((1-(1-methylcyclobutanecarbonyl)azetidin-3-yl)methyl)-4,6-diazaspiro[2.4]hept-4-en-7-one]: the inhibition at 10 µM in experiment [1] was 99%. In addition, the IC50 in experiment [1] was 64.6 nM; in the experiment on A2780 ovarian cells [2], roughly 72.4 nM; in experiment [3], 43.7 nM; in experiment [4], 117 nM; in experiment [5], 105 nM; in the experiment on A2780 ovarian cells [6], 6030 nM.
For `O=C(C1CC1)N1CC[C@@H](CN2C(=O)C3(CC3)N=C2c2ccc(-c3ccc(F)c(Cl)c3)cc2)C1` [compound 209, (R)-5-(3-chloro-4-fluoro-[1,1-biphenyl]-4-yl)-6-((1-(cyclopropanecarbonyl)pyrrolidin-3-yl)methyl)-4,6-diazaspiro[2.4]hept-4-en-7-one], the inhibition at 10 µM in experiment [1] was determined as 108%. In addition, the IC50 in experiment [1] is 89.1 nM; with A2780 ovarian cells [2], 1860 nM; in experiment [3] it was roughly 776 nM; in experiment [4], 4170 nM; in experiment [5] it was 257 nM; in the experiment on A2780 ovarian cells [6] it was greater than 10000 nM.
Regarding `N#CCc1c[nH]c2ccc(-c3ccc(C4=NC5(CC5)C(=O)N4C[C@@H]4CCN(C(=O)C5CC5)C4)cc3)cc12` [compound 212, (R)-2-(5-(4-(6-((1-(cyclopropanecarbonyl)pyrrolidin-3-yl)methyl)-7-oxo-4,6-diazaspiro[2.4]hept-4-en-5-yl)phenyl)-1H-indole-3-yl)acetonitrile], in experiment [1], the inhibition at 10 µM is 101%. Moreover, the IC50 in experiment [1] is 28.2 nM; in the experiment on A2780 ovarian cells [2] it was 7.24 nM; in experiment [3] it was 18.2 nM; in experiment [4], 110 nM; in experiment [5], 37.2 nM; in the experiment on A2780 ovarian cells [6], greater than 10000 nM.
As to `COC(=O)N1CC2(C1)N=C(c1ccc(-c3ccc4occc4c3)cc1)N(C[C@@H]1CCN(C(=O)[C@H]3CCCO3)C1)C2=O` [compound 735, Methyl 6-[4-(1-benzofuran-5-yl)phenyl]-8-oxo-7-({(3R)-1-[(2T)-tetrahydro-furan-2-ylcarbonyl]pyrrolidin-3-yl}methyl)-2,5,7-triazaspiro[3.4]oct-5-ene-2-carboxylate], in experiment [1], the inhibition at 10 µM is 97%. The IC50 in experiment [1] is 135 nM; in experiment [3], roughly 912 nM; in experiment [4] it was 3800 nM; in experiment [5] it was 851 nM.
In the case of `COC(=O)N1CC2(C1)N=C(c1ccc(-c3ccc4c(cnn4C)c3)cc1)N(C[C@@H]1CCN(C(=O)[C@H]3CCCO3)C1)C2=O` [compound 739, Methyl 6-[4-(1-methyl-1H-indazol-5-ylyl)phenyl]-8-oxo-7-({(3R)-1-[(2R)-tetrahydro-furan-2-ylcarbonyl]pyrrolidin-3-yl}methyl)-2,5,7-triazaspiro[3.4]oct-5-ene-2-carboxylate], the inhibition at 10 µM in experiment [1] was determined as 92%. The IC50 was 234 nM in experiment [1], roughly 871 nM in experiment [3], 3800 nM in experiment [4] and 513 nM in experiment [5].
